Measured values as given in ChEMBL document CHEMBL1201861, “Genomics of Drug Sensitity in Cancer screening data, Wellcome Trust Sanger Institute”.

Test system: CTB-1
Experiment: cells
Format: functional, cell-based, Homo sapiens
Details: Homo sapiens, CTB-1
Description: SANGER: Inhibition of human CTB-1 cell growth in a cell viability assay.

Row | Structure (SMILES) | IC50
1 | CCCCCCCCCCCC1=C(O)C(=O)C=C(O)C1=O [EMBELIN] | 28 µM

Test system: Calu-6;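 note: growth of human Calu-6 cells, read out by a cell viability assay, IC50 marking inhibition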
Experiment: cells
Format: functional, cell-based, Homo sapiens
Details: Homo sapiens, Calu-6
Description: SANGER: Inhibition of human Calu-6 cell growth in a cell viability assay.

Row | Structure (SMILES) | IC50
2 | CCCCCCCCCCCC1=C(O)C(=O)C=C(O)C1=O [EMBELIN] | 4.83 µM

Test system: D-502MG
Experiment: cells
Format: functional, cell-based, Homo sapiens
Details: Homo sapiens, D-502MG
Description: SANGER: Inhibition of human D-502MG cell growth in a cell viability assay.

Row | Structure (SMILES) | IC50
3 | CCCCCCCCCCCC1=C(O)C(=O)C=C(O)C1=O [EMBELIN] | > 32 µM

Test system: DB
Experiment: cells
Format: functional, cell-based, Homo sapiens
Details: Homo sapiens, DB
Description: SANGER: Inhibition of human DB cell growth in a cell viability assay.

Row | Structure (SMILES) | IC50
4 | CCCCCCCCCCCC1=C(O)C(=O)C=C(O)C1=O [EMBELIN] | > 32 µM

Test system: DEL;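 note: growth inhibition of the human DEL cell line, read out with a cell viability assay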
Experiment: cells
Format: functional, cell-based, Homo sapiens
Details: Homo sapiens, DEL
Description: SANGER: Inhibition of human DEL cell growth in a cell viability assay.

Row | Structure (SMILES) | IC50
5 | CCCCCCCCCCCC1=C(O)C(=O)C=C(O)C1=O [EMBELIN] | 10.4 µM

Test system: EM-2;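 note: growth inhibition of EM-2 cells, read out with a cell viability assay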
Experiment: cells
Format: functional, cell-based, Homo sapiens
Details: Homo sapiens, EM-2
Description: SANGER: Inhibition of human EM-2 cell growth in a cell viability assay.

Row | Structure (SMILES) | IC50
6 | CCCCCCCCCCCC1=C(O)C(=O)C=C(O)C1=O [EMBELIN] | > 32 µM

Test system: ES5;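 note: growth inhibition of human ES5 cells, read out by a cell viability assay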
Experiment: cells
Format: functional, cell-based, Homo sapiens
Details: Homo sapiens, ES5
Description: SANGER: Inhibition of human ES5 cell growth in a cell viability assay.

Row | Structure (SMILES) | IC50
7 | CCCCCCCCCCCC1=C(O)C(=O)C=C(O)C1=O [EMBELIN] | > 32 µM

Test system: ES6;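 note: growth inhibition of human ES6 cells, read out with a cell viability assay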
Experiment: cells
Format: functional, cell-based
Details: Homo sapiens
Description: SANGER: Inhibition of human ES6 cell growth in a cell viability assay.

Row | Structure (SMILES) | IC50
8 | CCCCCCCCCCCC1=C(O)C(=O)C=C(O)C1=O [EMBELIN] | 9.55 µM

Test system: ES8;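 note: growth inhibition of human ES8 cells, read out with a cell viability assay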
Experiment: cells
Format: functional, cell-based, Homo sapiens
Details: Homo sapiens, ES8
Description: SANGER: Inhibition of human ES8 cell growth in a cell viability assay.

Row | Structure (SMILES) | IC50
9 | CCCCCCCCCCCC1=C(O)C(=O)C=C(O)C1=O [EMBELIN] | 14 µM

Test system: EW-13;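 note: growth inhibition of EW-13 cells, read out with a cell viability assay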
Experiment: cells
Format: functional, cell-based, Homo sapiens
Details: Homo sapiens, EW-13; read-out: IC50
Description: SANGER: Inhibition of human EW-13 cell growth in a cell viability assay.

Row | Structure (SMILES) | IC50
10 | CCCCCCCCCCCC1=C(O)C(=O)C=C(O)C1=O [EMBELIN] | 9.67 µM

Test system: GAK;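 note: cell growth inhibition read out by a cell viability assay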
Experiment: cells
Format: functional, cell-based, Homo sapiens
Details: Homo sapiens, GAK
Description: SANGER: Inhibition of human GAK cell growth in a cell viability assay.

Row | Structure (SMILES) | IC50
11 | CCCCCCCCCCCC1=C(O)C(=O)C=C(O)C1=O [EMBELIN] | 11.7 µM

Test system: HDLM-2;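 note: cell viability assay measuring suppression of HDLM-2 proliferation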
Experiment: cells
Format: functional, cell-based, Homo sapiens
Details: Homo sapiens, HDLM-2
Description: SANGER: Inhibition of human HDLM-2 cell growth in a cell viability assay.

Row | Structure (SMILES) | IC50
12 | CCCCCCCCCCCC1=C(O)C(=O)C=C(O)C1=O [EMBELIN] | 17.2 µM

Test system: HT-144
Experiment: cells
Format: functional, cell-based, Homo sapiens
Details: Homo sapiens, HT-144
Description: SANGER: Inhibition of human HT-144 cell growth in a cell viability assay.

Row | Structure (SMILES) | IC50
13 | CCCCCCCCCCCC1=C(O)C(=O)C=C(O)C1=O [EMBELIN] | 8.74 µM

Test system: IST-MEL1;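 note: growth inhibition of the cell line, read out with a cell viability assay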
Experiment: cells
Format: functional, cell-based, Homo sapiens
Details: Homo sapiens, IST-MEL1
Description: SANGER: Inhibition of human IST-MEL1 cell growth in a cell viability assay.

Row | Structure (SMILES) | IC50
14 | CCCCCCCCCCCC1=C(O)C(=O)C=C(O)C1=O [EMBELIN] | 7.9 µM

Test system: K5
Experiment: cells
Format: functional, cell-based, Homo sapiens
Details: Homo sapiens, K5
Description: SANGER: Inhibition of human K5 cell growth in a cell viability assay.

Row | Structure (SMILES) | IC50
15 | CCCCCCCCCCCC1=C(O)C(=O)C=C(O)C1=O [EMBELIN] | > 32 µM

Test system: L-428
Experiment: cells
Format: functional, cell-based, Homo sapiens
Details: Homo sapiens, L-428
Description: SANGER: Inhibition of human L-428 cell growth in a cell viability assay.

Row | Structure (SMILES) | IC50
16 | CCCCCCCCCCCC1=C(O)C(=O)C=C(O)C1=O [EMBELIN] | 5.39 µM

Test system: LB2518-MEL;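 note: growth inhibition of human LB2518-MEL cells, measured with a cell viability assay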
Experiment: cells
Format: functional, cell-based
Details: Homo sapiens
Description: SANGER: Inhibition of human LB2518-MEL cell growth in a cell viability assay.

Row | Structure (SMILES) | IC50
17 | CCCCCCCCCCCC1=C(O)C(=O)C=C(O)C1=O [EMBELIN] | > 32 µM

Test system: LB831-BLC;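 note: growth inhibition of LB831-BLC cells, read out with a cell viability assay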
Experiment: cells
Format: functional, cell-based, Homo sapiens
Details: Homo sapiens, LB831-BLC
Description: SANGER: Inhibition of human LB831-BLC cell growth in a cell viability assay.

Row | Structure (SMILES) | IC50
18 | CCCCCCCCCCCC1=C(O)C(=O)C=C(O)C1=O [EMBELIN] | 12.6 µM

Test system: LB996-RCC
Experiment: cells
Format: functional, cell-based, Homo sapiens
Details: Homo sapiens, LB996-RCC
Description: SANGER: Inhibition of human LB996-RCC cell growth in a cell viability assay.

Row | Structure (SMILES) | IC50
19 | CCCCCCCCCCCC1=C(O)C(=O)C=C(O)C1=O [EMBELIN] | 14.1 µM

Test system: LS-123
Experiment: cells
Format: functional, cell-based, Homo sapiens
Details: Homo sapiens, LS-123
Description: SANGER: Inhibition of human LS-123 cell growth in a cell viability assay.

Row | Structure (SMILES) | IC50
20 | CCCCCCCCCCCC1=C(O)C(=O)C=C(O)C1=O [EMBELIN] | 9.42 µM

Test system: LXF-289 cell line
Experiment: cells
Format: functional, cell-based
Details: Homo sapiens
Description: SANGER: Inhibition of human LXF-289 cell growth in a cell viability assay.

Row | Structure (SMILES) | IC50
21 | CCCCCCCCCCCC1=C(O)C(=O)C=C(O)C1=O [EMBELIN] | 9 µM

Test system: MEG-01;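 note: growth inhibition of MEG-01 cells, read out by a cell viability assay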
Experiment: cells
Format: functional, cell-based, Homo sapiens
Details: Homo sapiens, MEG-01
Description: SANGER: Inhibition of human MEG-01 cell growth in a cell viability assay.

Row | Structure (SMILES) | IC50
22 | CCCCCCCCCCCC1=C(O)C(=O)C=C(O)C1=O [EMBELIN] | 25.5 µM

Test system: MHH-NB-11;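 note: growth inhibition of human MHH-NB-11 cells, read out by a cell viability assay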
Experiment: cells
Format: functional, cell-based, Homo sapiens
Details: Homo sapiens, MHH-NB-11
Description: SANGER: Inhibition of human MHH-NB-11 cell growth in a cell viability assay.

Row | Structure (SMILES) | IC50
23 | CCCCCCCCCCCC1=C(O)C(=O)C=C(O)C1=O [EMBELIN] | > 32 µM

Test system: ML-2;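 note: growth inhibition of ML-2 cells, measured with a cell viability readout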
Experiment: cells
Format: functional, cell-based, Homo sapiens
Details: Homo sapiens, ML-2
Description: SANGER: Inhibition of human ML-2 cell growth in a cell viability assay.

Row | Structure (SMILES) | IC50
24 | CCCCCCCCCCCC1=C(O)C(=O)C=C(O)C1=O [EMBELIN] | 12.4 µM

Test system: MOLT-4;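 note: growth inhibition of MOLT-4 cells, determined with a cell viability readout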
Experiment: cells
Format: functional, cell-based, Homo sapiens
Details: Homo sapiens, MOLT-4
Description: SANGER: Inhibition of human MOLT-4 cell growth in a cell viability assay.

Row | Structure (SMILES) | IC50
25 | CCCCCCCCCCCC1=C(O)C(=O)C=C(O)C1=O [EMBELIN] | 10.6 µM

Test system: MS-1
Experiment: cells
Format: functional, cell-based, Homo sapiens
Details: Homo sapiens, MS-1
Description: SANGER: Inhibition of human MS-1 cell growth in a cell viability assay.

Row | Structure (SMILES) | IC50
26 | CCCCCCCCCCCC1=C(O)C(=O)C=C(O)C1=O [EMBELIN] | > 32 µM

Test system: NB13;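 note: cell viability readout measuring growth inhibition of human NB13 cells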
Experiment: cells
Format: functional, cell-based, Homo sapiens
Details: Homo sapiens, NB13
Description: SANGER: Inhibition of human NB13 cell growth in a cell viability assay.

Row | Structure (SMILES) | IC50
27 | CCCCCCCCCCCC1=C(O)C(=O)C=C(O)C1=O [EMBELIN] | 16.7 µM

Test system: NB69;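 note: growth inhibition of NB69 cells, determined by a cell viability assay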
Experiment: cells
Format: functional, cell-based, Homo sapiens
Details: Homo sapiens, NB69
Description: SANGER: Inhibition of human NB69 cell growth in a cell viability assay.

Row | Structure (SMILES) | IC50
28 | CCCCCCCCCCCC1=C(O)C(=O)C=C(O)C1=O [EMBELIN] | > 32 µM

Test system: NCI-H209;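 note: growth inhibition of human NCI-H209 cells, measured by a cell viability assay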
Experiment: cells
Format: functional, cell-based, Homo sapiens
Details: Homo sapiens, NCI-H209
Description: SANGER: Inhibition of human NCI-H209 cell growth in a cell viability assay.

Row | Structure (SMILES) | IC50
29 | CCCCCCCCCCCC1=C(O)C(=O)C=C(O)C1=O [EMBELIN] | > 32 µM

Test system: NCI-H82;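 note: growth inhibition of NCI-H82 cells, measured with a cell viability readout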
Experiment: cells
Format: functional, cell-based, Homo sapiens
Details: Homo sapiens, NCI-H82
Description: SANGER: Inhibition of human NCI-H82 cell growth in a cell viability assay.

Row | Structure (SMILES) | IC50
30 | CCCCCCCCCCCC1=C(O)C(=O)C=C(O)C1=O [EMBELIN] | > 32 µM

Test system: NMC-G1;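 note: growth inhibition of the NMC-G1 cell line, measured with a cell viability read-out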
Experiment: cells
Format: functional, cell-based, Homo sapiens
Details: Homo sapiens, NMC-G1
Description: SANGER: Inhibition of human NMC-G1 cell growth in a cell viability assay.

Row | Structure (SMILES) | IC50
31 | CCCCCCCCCCCC1=C(O)C(=O)C=C(O)C1=O [EMBELIN] | 6.97 µM

Test system: NTERA-2-cl-D1;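 note: inhibition of cell growth, measured with a cell viability assay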
Experiment: cells
Format: functional, cell-based, Homo sapiens
Details: Homo sapiens, NTERA-2-cl-D1
Description: SANGER: Inhibition of human NTERA-S-cl-D1 cell growth in a cell viability assay.

Row | Structure (SMILES) | IC50
32 | CCCCCCCCCCCC1=C(O)C(=O)C=C(O)C1=O [EMBELIN] | 1600 nM

Test system: Ramos-2G6-4C10;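 note: growth inhibition of the cell line, measured by a cell viability read-out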
Experiment: cells
Format: functional, cell-based, Homo sapiens
Details: Homo sapiens, Ramos-2G6-4C10
Description: SANGER: Inhibition of human Ramos-2G6-4C10 cell growth in a cell viability assay.

Row | Structure (SMILES) | IC50
33 | CCCCCCCCCCCC1=C(O)C(=O)C=C(O)C1=O [EMBELIN] | 17 µM

Test system: SF-539;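 note: Read-out is a cell viability assay, with IC50 reflecting inhibition of cell growth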
Experiment: cells
Format: functional, cell-based, Homo sapiens
Details: Homo sapiens, SF-539
Description: SANGER: Inhibition of human SF539 cell growth in a cell viability assay.

Row | Structure (SMILES) | IC50
34 | CCCCCCCCCCCC1=C(O)C(=O)C=C(O)C1=O [EMBELIN] | 15.4 µM

Test system: SHP77;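 note: growth inhibition of human SHP-77 cells measured by a cell viability assay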
Experiment: cells
Format: functional, cell-based, Homo sapiens, SHP-77
Details: Homo sapiens, SHP77
Description: SANGER: Inhibition of human SHP-77 cell growth in a cell viability assay.

Row | Structure (SMILES) | IC50
35 | CCCCCCCCCCCC1=C(O)C(=O)C=C(O)C1=O [EMBELIN] | > 32 µM

Test system: SJSA-1;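 note: growth inhibition of human SJSA-1 cells, read out through a cell viability measurement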
Experiment: cells
Format: functional, cell-based, Homo sapiens
Details: Homo sapiens, SJSA-1
Description: SANGER: Inhibition of human SJSA-1 cell growth in a cell viability assay.

Row | Structure (SMILES) | IC50
36 | CCCCCCCCCCCC1=C(O)C(=O)C=C(O)C1=O [EMBELIN] | 4.27 µM

Test system: SK-LMS-1;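 note: growth inhibition of human SK-LMS-1 cells, read out with a cell viability assay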
Experiment: cells
Format: functional, cell-based, Homo sapiens
Details: Homo sapiens, SK-LMS-1
Description: SANGER: Inhibition of human SK-LMS-1 cell growth in a cell viability assay.

Row | Structure (SMILES) | IC50
37 | CCCCCCCCCCCC1=C(O)C(=O)C=C(O)C1=O [EMBELIN] | 5.64 µM

Test system: SNB-75;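 note: cell viability assay measuring growth inhibition of human SNB-75 cells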
Experiment: cells
Format: functional, cell-based, Homo sapiens
Details: Homo sapiens, SNB-75
Description: SANGER: Inhibition of human SNB75 cell growth in a cell viability assay.

Row | Structure (SMILES) | IC50
38 | CCCCCCCCCCCC1=C(O)C(=O)C=C(O)C1=O [EMBELIN] | 17.4 µM

Test system: SW684;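 note: growth inhibition of human SW684 cells, measured by a cell viability assay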
Experiment: cells
Format: functional, cell-based, Homo sapiens
Details: Homo sapiens, SW684; read-out: IC50
Description: SANGER: Inhibition of human SW684 cell growth in a cell viability assay.

Row | Structure (SMILES) | IC50
39 | CCCCCCCCCCCC1=C(O)C(=O)C=C(O)C1=O [EMBELIN] | > 32 µM

Test system: SW 954;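 note: growth inhibition of SW954 human cancer cells, read out as cell viability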
Experiment: cells
Format: functional, cell-based, Homo sapiens
Details: Homo sapiens, SW 954
Description: SANGER: Inhibition of human SW954 cell growth in a cell viability assay.

Row | Structure (SMILES) | IC50
40 | CCCCCCCCCCCC1=C(O)C(=O)C=C(O)C1=O [EMBELIN] | 31.1 µM

Test system: SW982;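 note: growth inhibition of SW982 cells, read out with a cell viability assay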
Experiment: cells
Format: functional, cell-based
Details: Homo sapiens
Description: SANGER: Inhibition of human SW982 cell growth in a cell viability assay.

Row | Structure (SMILES) | IC50
41 | CCCCCCCCCCCC1=C(O)C(=O)C=C(O)C1=O [EMBELIN] | 7.34 µM

Test system: TE-1;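 note: growth inhibition of the human TE-1 cell line, read out with a cell viability assay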
Experiment: cells
Format: functional, cell-based, Homo sapiens
Details: Homo sapiens, TE-1
Description: SANGER: Inhibition of human TE-1 cell growth in a cell viability assay.

Row | Structure (SMILES) | IC50
42 | CCCCCCCCCCCC1=C(O)C(=O)C=C(O)C1=O [EMBELIN] | 21.6 µM

Test system: A3-KAW;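 note: growth inhibition of human A3-KAW cells, read out with a cell viability assay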
Experiment: cells
Format: functional, cell-based, Homo sapiens
Details: Homo sapiens, A3-KAW
Description: SANGER: Inhibition of human A3-KAW cell growth in a cell viability assay.

Row | Structure (SMILES) | IC50
43 | CCCCCCCCCCCC1=C(O)C(=O)C=C(O)C1=O [EMBELIN] | 9.01 µM

Test system: A388;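 note: growth inhibition of human A388 cells, read out with a cell viability assay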
Experiment: cells
Format: functional, cell-based
Details: Homo sapiens
Description: SANGER: Inhibition of human A388 cell growth in a cell viability assay.

Row | Structure (SMILES) | IC50
44 | CCCCCCCCCCCC1=C(O)C(=O)C=C(O)C1=O [EMBELIN] | 6.7 µM

Test system: A704;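 note: growth inhibition of human A704 cells, read out with a cell viability assay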
Experiment: cells
Format: functional, cell-based
Details: Homo sapiens
Description: SANGER: Inhibition of human A704 cell growth in a cell viability assay.

Row | Structure (SMILES) | IC50
45 | CCCCCCCCCCCC1=C(O)C(=O)C=C(O)C1=O [EMBELIN] | 10.9 µM

Test system: AM-38;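 note: growth inhibition of AM-38 cells of human origin, read out by a cell viability assay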
Experiment: cells
Format: functional, cell-based, Homo sapiens
Details: Homo sapiens, AM-38
Description: SANGER: Inhibition of human AM-38 cell growth in a cell viability assay.

Row | Structure (SMILES) | IC50
46 | CCCCCCCCCCCC1=C(O)C(=O)C=C(O)C1=O [EMBELIN] | 12.5 µM

Test system: Becker;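 note: growth inhibition of Becker cells, read out with a cell viability assay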
Experiment: cells
Format: functional, cell-based, Homo sapiens
Details: Homo sapiens, Becker
Description: SANGER: Inhibition of human Becker cell growth in a cell viability assay.

Row | Structure (SMILES) | IC50
47 | CCCCCCCCCCCC1=C(O)C(=O)C=C(O)C1=O [EMBELIN] | 15.8 µM

Test system: TE-6;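 note: growth inhibition of TE-6 cells, read out with a cell viability assay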
Experiment: cells
Format: functional, cell-based, Homo sapiens
Details: Homo sapiens, TE-6
Description: SANGER: Inhibition of human TE-6 cell growth in a cell viability assay.

Row | Structure (SMILES) | IC50
48 | CCCCCCCCCCCC1=C(O)C(=O)C=C(O)C1=O [EMBELIN] | 24.3 µM

Test system: TE-9;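 note: cell growth inhibition, measured with a cell viability readout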
Experiment: cells
Format: functional, cell-based, Homo sapiens
Details: Homo sapiens, TE-9
Description: SANGER: Inhibition of human TE-9 cell growth in a cell viability assay.

Row | Structure (SMILES) | IC50
49 | CCCCCCCCCCCC1=C(O)C(=O)C=C(O)C1=O [EMBELIN] | 8.5 µM

Test system: TGW;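 note: growth inhibition of human TGW cells, read out with a cell viability assay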
Experiment: cells
Format: functional, cell-based, Homo sapiens
Details: Homo sapiens, TGW
Description: SANGER: Inhibition of human TGW cell growth in a cell viability assay.

Row | Structure (SMILES) | IC50
50 | CCCCCCCCCCCC1=C(O)C(=O)C=C(O)C1=O [EMBELIN] | > 32 µM

Test system: TK-10;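 note: growth inhibition of TK-10 cells, read out in a cell viability assay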
Experiment: cells
Format: functional, cell-based, Homo sapiens
Details: Homo sapiens, TK-10
Description: SANGER: Inhibition of human TK10 cell growth in a cell viability assay.

Row | Structure (SMILES) | IC50
51 | CCCCCCCCCCCC1=C(O)C(=O)C=C(O)C1=O [EMBELIN] | > 32 µM
